Experimental data: ChEMBL document CHEMBL1129845, “Digitalis-like compounds: Synthesis and biological evaluation of 3-(aminoalkylthio) derivatives” (Bioorg Med Chem Lett, 1997)
Active and inactive are the calls of the source. No cut-off for these calls is given here.

Species: Canis lupus familiaris
Experiment: Displacement of [3H]ouabain binding to Na+,K+ -ATPase receptor isolated from dog kidney; NA = <50% displacement at 10e-5 M

Row | Structure (SMILES) | -Log IC50
1 | C[C@]12CC[C@H](S)C[C@H]1CC[C@@H]1[C@@H]2CC[C@]2(C)[C@@H](C3=CC(=O)OC3)CC[C@@H]12 | inactive

Target: not listed separately
Experiment: Displacement of [3H]ouabain binding from Na+,K+ -ATPase receptor isolated from dog kidney
Design: species or system Canis lupus familiaris

Row | Structure (SMILES) | -Log IC50
2 | C[C@]12CC[C@H](SCCCN)C[C@H]1CC[C@@H]1[C@@H]2CC[C@]2(C)[C@@H]([C@@H]3COC(=O)C3)CC[C@]12O | 6.5
3 | C[C@]12CC[C@H](SCCCN)C[C@H]1CC[C@@H]1[C@@H]2CC[C@]2(C)[C@@H](C3=CC(=O)OC3)CC[C@@H]12 | 5.8
4 | C[C@]12CC[C@H](O)C[C@H]1CC[C@@H]1[C@@H]2CC[C@]2(C)[C@@H](C3=CC(=O)OC3)C[C@H]3O[C@]132 | 6.6
5 | C[C@]12CC[C@H](O)C[C@H]1CC[C@@H]1[C@@H]2CC[C@]2(C)[C@@H](C3=CC(=O)OC3)CC[C@@H]12 | 5.2
6 | C[C@]12CCC3C(CC[C@@H]4C[C@@H](SCCCN)CC[C@]34C)C1=CC[C@@H]2C1=CC(=O)OC1 (stereo partly drawn) | 5.8
7 | C[C@]12CC[C@H](O)C[C@H]1CC[C@@H]1[C@@H]2CC[C@]2(C)[C@@H]([C@H]3COC(=O)C3)CC[C@]12O | 5.8
8 | C[C@]12CC[C@H](SCCCN)C[C@H]1CC[C@@H]1[C@@H]2CC[C@]2(C)[C@@H](C3=CC(=O)OC3)CC[C@]12O | 7.1
9 | C[C@]12CC[C@H](SCCCN3CCCC3)C[C@H]1CC[C@@H]1[C@@H]2CC[C@]2(C)[C@@H](C3=CC(=O)OC3)CC[C@]12O | 6.8
10 | C[C@]12CC[C@H](S)C[C@H]1CC[C@@H]1[C@@H]2CC[C@]2(C)[C@@H](C3=CC(=O)OC3)C[C@H]3O[C@]132 | 5.6
11 | C[C@]12CC[C@H](S)C[C@H]1CC[C@@H]1[C@@H]2CC[C@]2(C)[C@@H]([C@@H]3COC(=O)C3)CC[C@]12O | 5
12 | C[C@]12CC[C@H](O)C[C@H]1CC[C@@H]1[C@@H]2CC[C@]2(C)[C@@H]([C@@H]3COC(=O)C3)CC[C@]12O | 5.6
13 | C[C@]12CC[C@H](O)C[C@H]1CC[C@@H]1[C@@H]2CC[C@]2(C)[C@@H](C3=CC(=O)OC3)CC[C@]12O [DIGITOXIGENIN] | 7.2
14 | C[C@]12CCC3C(CC[C@@H]4C[C@@H](O)CC[C@]34C)C1=CC[C@@H]2C1=CC(=O)OC1 (stereo partly drawn) | 5.5
15 | C[C@]12CC[C@H](SCC[N+](C)(C)C)C[C@H]1CC[C@@H]1[C@@H]2CC[C@]2(C)[C@@H](C3=CC(=O)OC3)CC[C@]12O | 7
16 | C[C@]12CC[C@H](S)C[C@H]1CC[C@@H]1[C@@H]2CC[C@]2(C)[C@@H]([C@H]3COC(=O)C3)CC[C@]12O | 5.5
17 | C[C@]12CC[C@H](S)C[C@H]1CC[C@@H]1[C@@H]2CC[C@]2(C)[C@@H](C3=CC(=O)OC3)CC[C@]12O | 6
18 | C[C@]12CC[C@H](SCCCN)C[C@H]1CC[C@@H]1[C@@H]2CC[C@]2(C)[C@@H](C3=CC(=O)OC3)C[C@H]3O[C@]132 | 6.6
19 | C[C@]12CC[C@H](SCCCN3CCNCC3)C[C@H]1CC[C@@H]1[C@@H]2CC[C@]2(C)[C@@H](C3=CC(=O)OC3)CC[C@]12O | 6.5
20 | CN(C)CCCS[C@H]1CC[C@@]2(C)[C@H](CC[C@@H]3[C@@H]2CC[C@]2(C)[C@@H](C4=CC(=O)OC4)CC[C@]32O)C1 | 7
21 | C[C@]12CC[C@H](SCCN3CCCC3)C[C@H]1CC[C@@H]1[C@@H]2CC[C@]2(C)[C@@H](C3=CC(=O)OC3)CC[C@]12O | 6.7
22 | C[C@]12CC[C@H](SCCCN)C[C@H]1CC[C@@H]1[C@@H]2CC[C@]2(C)[C@@H]([C@H]3COC(=O)C3)CC[C@]12O | 6.5
23 | C[C@]12CC[C@H](SCCN)C[C@H]1CC[C@@H]1[C@@H]2CC[C@]2(C)[C@@H](C3=CC(=O)OC3)CC[C@]12O | 7.5
